Experimental data published in the supplement of paper PMC13386468.

Experiments:
Experiment in all cases: IC50 for competition of protein binding to Kinobeads
Details in all cases: assay detail: Kinobeads competition in P. falciparum blood-stage lysate
[1] = molecular target: UniProt Q8II01
[2] = molecular target: UniProt Q8II53
[3] = molecular target: UniProt Q8I562
[4] = molecular target: UniProt C0H5J5
[5] = molecular target: UniProt Q8IDV2
[6] = molecular target: UniProt Q8I2Q0
[7] = molecular target: UniProt Q8IL19
[8] = molecular target: UniProt C6KSV3
[9] = molecular target: UniProt C0H530
[10] = molecular target: UniProt Q8IIL7
[11] = molecular target: UniProt Q8I492
[12] = molecular target: UniProt Q8IDH5
[13] = molecular target: UniProt Q8I3U9
[14] = molecular target: UniProt Q8I5D5
[15] = molecular target: UniProt Q76NN8
[16] = molecular target: UniProt Q8I488
[17] = molecular target: UniProt Q8ILR7
[18] = molecular target: UniProt Q8I5S4
[19] = molecular target: UniProt Q8IM15
[20] = molecular target: UniProt O77323
[21] = molecular target: UniProt Q8IJP8
[22] = molecular target: UniProt Q8I2I2
[23] = molecular target: UniProt Q8IBV7
[24] = molecular target: UniProt Q8IJM0
[25] = molecular target: UniProt Q8IBP0
[26] = molecular target: UniProt Q8IIH4
[27] = molecular target: UniProt Q8ILI6
[28] = molecular target: UniProt Q8IDQ9
[29] = molecular target: UniProt Q8IE22
[30] = molecular target: UniProt Q8IK92
[31] = molecular target: UniProt Q8I2X3
[32] = molecular target: UniProt Q8IDW4
[33] = molecular target: UniProt Q8IDZ9
[34] = molecular target: UniProt Q8IKV8
[35] = molecular target: UniProt Q8IKL5
[36] = molecular target: UniProt Q8IDJ8
[37] = molecular target: UniProt Q8ILC8
[38] = molecular target: UniProt Q6ZMA7
[39] = molecular target: UniProt Q8I1T8
[40] = molecular target: UniProt Q8IE85
[41] = molecular target: UniProt Q8IK91
[42] = molecular target: UniProt Q8ILB6
[43] = molecular target: UniProt Q8ILT5
[44] = molecular target: UniProt Q8IFM9
[45] = molecular target: UniProt C6KTA7
[46] = molecular target: UniProt Q8I546
[47] = molecular target: UniProt Q8I3K7
[48] = molecular target: UniProt Q8IM38
[49] = molecular target: UniProt Q8IDN6
[50] = molecular target: UniProt Q8IIM5
[51] = molecular target: UniProt Q7K6B1

Measured: IC50
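Further: native unpurified kinases from lysate captured on beads bearing immobilized kinase inhibitors, with bead-bound kinases quantified by mass spectrometry across compound doses.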

Sequence of UniProt Q6ZMA7 (Q6ZMA7 whole entry): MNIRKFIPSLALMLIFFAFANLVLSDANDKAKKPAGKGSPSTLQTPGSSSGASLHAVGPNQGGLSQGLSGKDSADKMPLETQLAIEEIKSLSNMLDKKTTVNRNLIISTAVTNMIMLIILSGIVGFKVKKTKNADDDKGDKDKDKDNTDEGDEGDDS
Sequence of UniProt Q8I2X3 (Q8I2X3 whole entry): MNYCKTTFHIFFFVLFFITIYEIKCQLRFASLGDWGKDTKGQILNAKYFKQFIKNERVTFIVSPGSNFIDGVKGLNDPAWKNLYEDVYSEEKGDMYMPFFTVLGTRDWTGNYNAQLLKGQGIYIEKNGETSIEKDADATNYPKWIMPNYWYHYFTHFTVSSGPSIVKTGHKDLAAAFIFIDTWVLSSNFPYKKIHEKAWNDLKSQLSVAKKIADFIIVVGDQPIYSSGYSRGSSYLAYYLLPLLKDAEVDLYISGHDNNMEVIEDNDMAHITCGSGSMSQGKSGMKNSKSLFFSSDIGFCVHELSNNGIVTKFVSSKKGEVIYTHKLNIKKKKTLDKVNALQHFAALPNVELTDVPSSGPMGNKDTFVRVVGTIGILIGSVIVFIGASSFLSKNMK
Sequence of UniProt Q8IM15 (Q8IM15 whole entry): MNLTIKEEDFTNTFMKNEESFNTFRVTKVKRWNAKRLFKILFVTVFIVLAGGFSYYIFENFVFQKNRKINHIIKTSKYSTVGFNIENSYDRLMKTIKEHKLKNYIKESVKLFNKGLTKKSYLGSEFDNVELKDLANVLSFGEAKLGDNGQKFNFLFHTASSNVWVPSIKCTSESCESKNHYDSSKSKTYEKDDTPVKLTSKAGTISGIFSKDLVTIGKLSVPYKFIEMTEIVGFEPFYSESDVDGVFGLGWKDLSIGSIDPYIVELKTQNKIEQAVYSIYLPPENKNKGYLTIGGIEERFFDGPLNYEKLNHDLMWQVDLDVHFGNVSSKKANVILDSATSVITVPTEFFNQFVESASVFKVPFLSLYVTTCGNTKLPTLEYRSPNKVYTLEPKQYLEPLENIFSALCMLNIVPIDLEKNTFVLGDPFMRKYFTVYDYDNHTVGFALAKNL
Sequence of UniProt Q8I1T8 (Q8I1T8 whole entry): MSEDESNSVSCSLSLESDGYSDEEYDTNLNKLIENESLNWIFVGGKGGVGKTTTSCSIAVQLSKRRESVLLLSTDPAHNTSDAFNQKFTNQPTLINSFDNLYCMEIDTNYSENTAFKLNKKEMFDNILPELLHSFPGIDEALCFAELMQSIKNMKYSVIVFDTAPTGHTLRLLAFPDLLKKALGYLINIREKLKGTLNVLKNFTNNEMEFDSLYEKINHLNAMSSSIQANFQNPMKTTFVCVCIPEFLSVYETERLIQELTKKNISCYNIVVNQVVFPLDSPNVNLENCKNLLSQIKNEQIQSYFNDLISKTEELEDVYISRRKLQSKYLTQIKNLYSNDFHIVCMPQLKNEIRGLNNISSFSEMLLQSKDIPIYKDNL
Sequence of UniProt Q8ILI6 (Q8ILI6 whole entry): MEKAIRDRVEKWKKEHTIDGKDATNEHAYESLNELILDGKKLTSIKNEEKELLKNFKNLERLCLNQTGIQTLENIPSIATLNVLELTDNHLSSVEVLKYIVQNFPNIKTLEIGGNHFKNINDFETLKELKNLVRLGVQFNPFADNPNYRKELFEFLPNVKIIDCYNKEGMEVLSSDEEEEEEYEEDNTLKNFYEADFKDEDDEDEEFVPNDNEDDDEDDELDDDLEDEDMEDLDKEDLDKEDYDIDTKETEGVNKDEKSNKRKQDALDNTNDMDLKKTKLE
Sequence of UniProt O77323 (O77323 whole entry): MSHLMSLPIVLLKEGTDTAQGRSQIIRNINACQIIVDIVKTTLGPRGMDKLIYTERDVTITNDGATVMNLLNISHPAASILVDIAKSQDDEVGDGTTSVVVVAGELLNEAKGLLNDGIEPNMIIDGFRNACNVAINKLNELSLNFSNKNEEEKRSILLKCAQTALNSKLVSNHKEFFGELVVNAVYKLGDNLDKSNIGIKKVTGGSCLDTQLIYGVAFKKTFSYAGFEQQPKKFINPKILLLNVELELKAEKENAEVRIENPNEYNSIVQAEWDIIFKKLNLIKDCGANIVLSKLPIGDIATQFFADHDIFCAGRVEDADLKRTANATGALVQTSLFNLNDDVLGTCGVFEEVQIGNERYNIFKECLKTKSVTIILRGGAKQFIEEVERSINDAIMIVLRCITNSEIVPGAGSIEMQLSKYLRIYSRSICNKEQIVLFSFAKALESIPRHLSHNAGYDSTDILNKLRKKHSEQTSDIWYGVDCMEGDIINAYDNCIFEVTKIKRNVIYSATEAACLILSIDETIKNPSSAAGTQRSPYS
Sequence of UniProt Q8IDQ9 (Q8IDQ9 whole entry): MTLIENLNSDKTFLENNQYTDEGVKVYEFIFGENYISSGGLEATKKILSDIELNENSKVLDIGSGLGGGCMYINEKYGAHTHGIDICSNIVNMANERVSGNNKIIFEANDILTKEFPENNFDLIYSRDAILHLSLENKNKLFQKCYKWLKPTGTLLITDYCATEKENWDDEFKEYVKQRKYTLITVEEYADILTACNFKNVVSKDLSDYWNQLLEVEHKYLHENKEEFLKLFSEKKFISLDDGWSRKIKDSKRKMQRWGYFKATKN
Sequence of UniProt Q8ILT5 (Q8ILT5 whole entry): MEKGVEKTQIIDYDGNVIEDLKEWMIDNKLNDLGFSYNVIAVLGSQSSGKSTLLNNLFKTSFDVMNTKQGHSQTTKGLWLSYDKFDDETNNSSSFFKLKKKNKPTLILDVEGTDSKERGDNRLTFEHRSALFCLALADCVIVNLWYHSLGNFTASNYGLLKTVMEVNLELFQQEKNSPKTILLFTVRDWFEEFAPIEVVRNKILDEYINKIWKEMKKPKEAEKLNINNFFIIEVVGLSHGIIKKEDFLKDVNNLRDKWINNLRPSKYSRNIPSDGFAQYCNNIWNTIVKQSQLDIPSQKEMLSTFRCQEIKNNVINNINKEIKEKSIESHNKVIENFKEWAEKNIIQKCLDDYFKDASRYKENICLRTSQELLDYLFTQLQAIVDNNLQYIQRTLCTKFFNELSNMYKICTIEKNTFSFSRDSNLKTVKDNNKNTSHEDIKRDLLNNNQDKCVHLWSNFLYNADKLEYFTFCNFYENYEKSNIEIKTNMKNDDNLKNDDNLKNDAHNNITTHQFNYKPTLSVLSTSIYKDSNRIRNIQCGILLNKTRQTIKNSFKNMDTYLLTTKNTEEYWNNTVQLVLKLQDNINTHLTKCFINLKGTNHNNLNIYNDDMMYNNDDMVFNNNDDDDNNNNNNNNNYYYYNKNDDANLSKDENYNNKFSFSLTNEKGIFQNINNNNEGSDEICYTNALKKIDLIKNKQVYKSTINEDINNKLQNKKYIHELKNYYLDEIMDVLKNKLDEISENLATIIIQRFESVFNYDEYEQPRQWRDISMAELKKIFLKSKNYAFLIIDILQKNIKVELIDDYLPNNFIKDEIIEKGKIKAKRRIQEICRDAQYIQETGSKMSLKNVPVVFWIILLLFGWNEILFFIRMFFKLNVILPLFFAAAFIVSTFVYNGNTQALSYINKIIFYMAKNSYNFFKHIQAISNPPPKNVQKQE

O=c1[nH]c2ccc(Cl)cc2c(NC2CN3CCC2CC3)c1-c1nc2ccccc2[nH]1 (stereo unspecified) [CHIR-124]
> 20 µM: all assays above
